Results reported in patent US20230151034A1 (COCRYSTAL PHARMA, INC., priority 2020, published 2023).

Biological target: SARS2 protease (Severe acute respiratory syndrome coronavirus 2, UniProt P0DTD1)
Assay: SARS-CoV-2 protease inhibition assay (SARS2 FRET protease assay)
Format: biochemical
Details: Table E; SARS-CoV-2 protease inhibition; read-out: IC50
Method: Viral protease assays: The antiviral activities of inhibitors were determined by FRET (Fluorescence Resonance Energy Transfer) assay. Purified viral protease was incubated with the protease substrate peptide (Edans-DFHLQ/GP-Dabcyl) and inhibitor, and IC50 values were subsequently determined by the fluorescence signals.
The SARS2 FRET protease assay was performed in 20 mM HEPES-Na pH 7, 120 mM NaCl, 0.4 mM EDTA, 0.01% Triton, 5% glycerol, and 4 mM DTT. A self-quenching peptide substrate 5-FAM-TSA VLQ SGF RKK (5TAMRA)-NH2 was custom synthesized by Anaspec. Compounds were diluted in 3-fold serial dilutions to final concentrations of 20 μM to 1.0 nM. SARS2 protease was added to a final concentration of 25 nM, depending on the enzyme activity level, and the peptide substrate was added to a final concentration of 1.3 μM. The assay was incubated 30 minutes at 30° C. and read in a Perkin Elmer Envision with excitation at 473 nm and emission measurement at 519 nm.

SMILES | IC50 [µM]
CON(C)C(=O)[C@@H]1CC(C(=O)N(C)C)C/C=C/CCC(Cc2ccccc2)OC(=O)NC(CC(C)C)C(=O)N1 (stereo in doubt) [Compound B31, (4S,7S)-15-Benzyl-4-isobutyl-N7-methoxy-N7,N9,N9-trimethyl-2,5-dioxo-1-oxa-3,6-diazacyclopentadec-11-ene-7,9-dicarboxamide] | > 200
CC(C)CC1NC(=O)OC(Cc2ccccc2)CC/C=C/CC(C(=O)N(C)C)CC(C=O)NC1=O (stereo in doubt) [Compound B38, (4S,7S)-15-Benzyl-7-formyl-4-isobutyl-N,N-dimethyl-2,5-dioxo-1-oxa-3,6-diazacyclopentadec-11-ene-9-carboxamide] | 137
CC(C)C[C@@H]1NC(=O)OC(Cc2ccccc2)CCCCCC(C(=O)N(C)C)CC(C=O)NC1=O (stereo in doubt) [Compound B44, (4S,7S)-15-benzyl-7-formyl-4-isobutyl-N,N-dimethyl-2,5-dioxo-1-oxa-3,6-diazacyclopentadecane-9-carboxamide] | 185
CON(C)C(=O)[C@H](CCC(=O)N(C)C)NC(=O)[C@H](CC1CCCCC1)NC(=O)OCc1cccc(Cl)c1 [Compound A3, 3-Chlorobenzyl ((S)-3-cyclohexyl-1-(((S)-5-(dimethylamino)-1-(methoxy (methyl)amino)-1,5-dioxopentan-2-yl)amino)-1-oxopropan-2-yl)carbamate] | > 200
CCCCCCCCC(=O)N[C@@H](CC(C)C)C(=O)NC1(C)CCC(=O)N(C)C1(O)C(=O)NC(C)C (stereo partly drawn) [Compound A5, 2-hydroxy-N-isopropyl-1,3-dimethyl-3-((S)-4-methyl-2-nonanamidopentanamido)-6-oxopiperidine-2-carboxamide] | > 200
CCNC(=O)CN(C)C(=O)CC[C@H](NC(=O)[C@H](CC1CCCCC1)NC(=O)OCc1cccc(Cl)c1)C(O)P(=O)(OCC)OCC (stereo partly drawn) [Compound A17, 3-Chlorobenzyl ((2S)-3-cyclohexyl-1-(((2S)-1-(diethoxyphosphoryl)-5-((2-(ethylamino)-2-oxoethyl) (methyl)amino)-1-hydroxy-5-oxopentan-2-yl)amino)-1-oxopropan-2-yl) carbamate] | 169
CCOCCOCCN(C)C(=O)CC[C@H](NC(=O)[C@H](CC1CCCCC1)NC(=O)OCc1cccc(Cl)c1)C(=O)N(C)OC [Compound A20, 3-Chlorobenzyl ((13S,16S)-17-cyclohexyl-13-(methoxy(methyl)carbamoyl)-9-methyl-10,15-dioxo-3,6-dioxa-9,14-diazaheptadecan-16-yl)carbamate] | > 200
CCNC(=O)OCCN(C)C(=O)CC[C@H](NC(=O)[C@H](CC1CCCCC1)NC(=O)OCc1cccc(Cl)c1)C(=O)N(C)OC [Compound A21, 3-Chlorobenzyl ((12S,15S)-16-cyclohexyl-12-(methoxy(methyl)carbamoyl)-8-methyl-4,9,14-trioxo-5-oxa-3,8,13-triazahexadecan-15-yl)carbamate] | > 200
CON(C)C(=O)[C@H](CCC(=O)N(C)CCc1cccc(Cl)c1)NC(=O)[C@H](CC1CCCCC1)NC(=O)OCc1cccc(Cl)c1 [Compound A23] | > 200
CN(CCc1ccccc1)C(=O)CC[C@@H](CO)NC(=O)[C@H](CC1CCCCC1)NC(=O)OCc1cccc(Cl)c1 [Compound A26, 3-chlorobenzyl ((S)-3-cyclohexyl-1-(((S)-1-hydroxy-5-(methyl(phenethyl)amino)-5-oxopentan-2-yl)amino)-1-oxopropan-2-yl)carbamate] | 14.7
CCNC(=O)OCCN(C)C(=O)CC[C@H](NC(=O)[C@H](CC1CCCCC1)NC(=O)OCc1cccc(Cl)c1)C(O)P(=O)(OCC)OCC (stereo partly drawn) [Compound A28, 3-Chlorobenzyl ((12S,15S)-16-cyclohexyl-12-((diethoxyphosphoryl)(hydroxy)methyl)-8-methyl-4,9,14-trioxo-5-oxa-3,8,13-triazahexadecan-15-yl)carbamate] | > 200
CCOC(=O)NCCN(C)C(=O)CC[C@H](NC(=O)[C@H](CC1CCCCC1)NC(=O)OCc1cccc(Cl)c1)C(O)P(=O)(OCC)OCC (stereo partly drawn) [Compound A31, 3-Chlorobenzyl ((12S,15S)-16-cyclohexyl-12-((diethoxyphosphoryl)(hydroxy)methyl)-8-methyl-4,9,14-trioxo-3-oxa-5,8,13-triazahexadecan-15-yl)carbamate] | 46
CCOP(=O)(OCC)C(O)[C@H](CCC(=O)N(C)CCc1cccc(Cl)c1)NC(=O)[C@H](CC1CCCCC1)NC(=O)OCc1cccc(Cl)c1 (stereo partly drawn) [Compound A34, 3-Chlorobenzyl ((2S)-1-(((2S)-5-((3-chlorophenethyl)(methyl)amino)-1-(diethoxyphosphoryl)-1-hydroxy-5-oxopentan-2-yl)amino)-3-cyclohexyl-1-oxopropan-2-yl)carbamate] | > 200
CCOP(=O)(OCC)C(O)[C@H](CCC(=O)N(C)CCc1ccccc1Cl)NC(=O)[C@H](CC1CCCCC1)NC(=O)OCc1cccc(Cl)c1 (stereo partly drawn) [Compound A47, 3-Chlorobenzyl ((2S)-1-(((2S)-5-((2-chlorophenethyl)(methyl)amino)-1-(diethoxyphosphoryl)-1-hydroxy-5-oxopentan-2-yl)amino)-3-cyclohexyl-1-oxopropan-2-yl)carbamate] | > 200
CCOP(=O)(OCC)C(O)[C@H](CCC(=O)N(C)CCc1ccncc1)NC(=O)[C@H](CC1CCCCC1)NC(=O)OCc1cccc(Cl)c1 (stereo partly drawn) [Compound A51, 3-Chlorobenzyl ((2S)-3-cyclohexyl-1-(((2S)-1-(diethoxyphosphoryl)-1-hydroxy-5-(methyl (2-(pyridin-4-yl)ethyl)amino)-5-oxopentan-2-yl)amino)-1-oxopropan-2-yl) carbamate] | > 200
CCOP(=O)(OCC)C(O)[C@H](CCC(=O)N1CCCCc2ccccc21)NC(=O)[C@H](CC1CCCCC1)NC(=O)OCc1cccc(Cl)c1 (stereo partly drawn) [Compound A55, 3-Chlorobenzyl ((2S)-3-cyclohexyl-1-(((2S)-1-(diethoxyphosphoryl)-1-hydroxy-5-oxo-5-(2,3,4,5-tetrahydro-1H-benzo[b]azepin-1-yl)pentan-2-yl)amino)-1-oxopropan-2-yl)carbamate] | > 200
CCNC(=O)NCCN(C)C(=O)CC[C@@H](CO)NC(=O)[C@H](CC1CCCCC1)NC(=O)OCc1cccc(Cl)c1 [Compound A100, 3-Chlorobenzyl ((12S,15S)-16-cyclohexyl-12-(hydroxymethyl)-8-methyl-4,9,14-trioxo-3,5,8,13-tetraazahexadecan-15-yl)carbamate] | > 200
CCNC(=O)OCCN(C)C(=O)CC[C@@H](CO)NC(=O)[C@H](CC1CCCCC1)NC(=O)OCc1cccc(Cl)c1 [Compound A101, 3-Chlorobenzyl ((12S,15S)-16-cyclohexyl-12-(hydroxymethyl)-8-methyl-4,9,14-trioxo-5-oxa-3,8,13-triazahexadecan-15-yl)carbamate] | > 200
CCOP(=O)(OCC)C(O)[C@H](CCC(=O)N(C)CC(C)c1ccccc1)NC(=O)[C@H](CC1CCCCC1)NC(=O)OCc1cccc(Cl)c1 (stereo partly drawn) [Compound A102, 3-Chlorobenzyl ((2S)-3-cyclohexyl-1-(((2S)-1-(diethoxyphosphoryl)-1-hydroxy-5-(methyl(2-phenylpropyl)amino)-5-oxopentan-2-yl)amino)-1-oxopropan-2-yl)carbamate] | > 200
CCOP(=O)(OCC)C(O)[C@H](CC(C)C(=O)N(C)CCc1ccccc1)NC(=O)[C@H](CC1CCCCC1)NC(=O)OCc1cccc(Cl)c1 (stereo partly drawn) [Compound A104, 3-Chlorobenzyl ((2S)-3-cyclohexyl-1-(((2S)-1-(diethoxyphosphoryl)-1-hydroxy-4-methyl-5-(methyl (phenethyl)amino)-5-oxopentan-2-yl)amino)-1-oxopropan-2-yl)carbamate] | > 200
CCOP(=O)(OCC)C(O)[C@H](CCC(=O)N1CCCC(c2ccccc2)C1)NC(=O)[C@H](CC1CCCCC1)NC(=O)OCc1cccc(Cl)c1 (stereo partly drawn) [Compound A106, 3-Chlorobenzyl ((2S)-3-cyclohexyl-1-(((2S)-1-(diethoxyphosphoryl)-1-hydroxy-5-oxo-5-(3-phenylpiperidin-1-yl)pentan-2-yl)amino)-1-oxopropan-2-yl)carbamate] | > 200
CCCCCCCCC(=O)N[C@@H](CC(C)C)C(=O)N[C@H](CO)CCC(=O)NC [Compound A110, N—((S)-1-(((S)-1-hydroxy-5-(methylamino)-5-oxopentan-2-yl)amino)-4-methyl-1-oxopentan-2-yl)nonanamide] | > 200
CCCCCCCCC(=O)N[C@@H](CC(C)C)C(=O)N[C@@H](CCC(=O)NC)CSSC[C@H](CCC(=O)NC)NC(=O)[C@H](CC(C)C)NC(=O)CCCCCCCC [Compound A111, N,N′-((2S,2'S)-(((2S,2'S)-disulfanediylbis(5-(methylamino)-5-oxopentane-1,2-diyl))bis(azanediyl))bis(4-methyl-1-oxopentane-1,2-diyl))dinonanamide] | > 200
CCCCCCCCC(=O)N[C@@H](CC(C)C)C1=NC(CCC(=O)NC)CO1 (stereo partly shown) [Compound A112, N-((1 S)-3-methyl-1-(4-(3-(methylamino)-3-oxopropyl)-4,5-dihydrooxazol-2-yl)butyl)nonanamide] | > 200
CC(C)C[C@@H]1NC(=O)C(Cc2ccccc2)CCCC/C=C/CC2CC(NC1=O)C(O)N(C)C2=O (stereo partly drawn) [Compound B21, (4S,E)-7-benzyl-18-hydroxy-4-isobutyl-17-methyl-2,5,17-triazabicyclo[13.3.1]nonadec-12-ene-3,6,16-trione] | 89.8
